Values quoted from earlier work as cited in US20190231742A1, “NUTRITIONAL AGENTS USED TO PREVENT AND TREAT HYPERSENSITIVITY AND OTHER ALLERGIC-TYPE DISORDERS” (priority 2017, published 2019).

Legend:
[1] = taken by mouth; FIG. 3
[2] = Alzheimer's disease patient; increasing quantities on successive days
[3] = oral administration of ~20 g; raised from ≤0.2 mM

rise in the blood level of D-βOHB and AcAc with increasing oral amount (mg/kg body weight) [1] | time of peak blood D-βOHB level after ingestion [2] | water solubility | plasma D-βOHB level [3] | SMILES
increases proportionately | about 1 hour | somewhat water soluble | – | CC(O)CCOC(=O)CC(C)O [KME, (R)-3-hydroybutyl (R)-3-hydroxybutyrate]
– | – | – | 0.5 to 0.7 mM | CCCCCCCC(=O)OCC(COC(=O)CCCCCCC)OC(=O)CCCCCCC [tricaprylin]
